Test results taken from ChEMBL document CHEMBL1201862, “PubChem BioAssay data set” (2004).
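Exposure lasted 48 hours, with cells grown in 96-well plates and compounds tested at five concentrations. At the GI50, growth is halved.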 Activity calls are given as the source filed them. No stated cut-off is given here; in the data, active = GI50 up to about 1.1 µM and inactive = higher.

Columns and labels:
Assay in all cases: inhibition of tumour cell growth, NCI panel, 48 h
COLO 205 = system: COLO 205
SF-268 = system: SF-268
HCC 2998 = system: HCC 2998
SN12C = system: SN12C
UACC-257 = system: UACC-257
UO-31 = system: UO-31
K562 = system: K562
HT-29 = system: HT-29
NCI-H460 = system: NCI-H460
OVCAR-8 = system: OVCAR-8
Malme-3M = system: Malme-3M
HOP-62 = system: HOP-62
OVCAR-3 = system: OVCAR-3
BT-549 = system: BT-549
T47D = system: T47D
A498 = system: A498
SK-MEL-2 = system: SK-MEL-2
SNB-75 = system: SNB-75
SK-MEL-5 = system: SK-MEL-5
A549 = system: A549

Measured: GI50

O=C1Nc2ccccc2/C1=N/N1C(=O)/C(=C/c2ccccc2S)N=C1c1ccccc1
inactive: COLO 205 76 µM | SF-268 > 100 µM | HCC 2998 > 100 µM | SN12C > 100 µM | UACC-257 > 100 µM | UO-31 61.4 µM | K562 27.9 µM | HT-29 > 100 µM | NCI-H460 73.6 µM | OVCAR-8 36.2 µM | Malme-3M > 100 µM | HOP-62 > 100 µM | OVCAR-3 33.4 µM | BT-549 91 µM | T47D 25.5 µM | A498 > 100 µM | SK-MEL-2 42.4 µM | SNB-75 > 100 µM | SK-MEL-5 81.8 µM | A549 89.5 µM
